This note sets out measurements from patent US12667565B2, “Use of composition for enhancing anticancer effect, comprising ERRy inhibitor as active ingredient” (NOVMETAPHARMA CO., LTD., priority 2019, dated 2026).

Series [1] relates to SK-Hep-R sorafenib-resistant liver cancer cell line. As to the kind of experiment: Cell proliferation (trypan blue cell count, hemocytometer). It counts as cell-based. The note with it: FIG. 4B. The procedure: (§1) The present inventors have performed experiments using sorafenib-resistant liver cancer cell lines (Huh7-SR and SK-Hep-R cell lines) and a liver cancer cell line-derived animal model (xenograft). To determine an effect of the synthetic compound DN200434, which is an inverse agonist against ERRγ, on the proliferation of liver cancer cells and ROS generation, ROS was measured using a cell count and 2′,7-dichlorofluorescin diacetate (DCF-DA). Finally, after a sorafenib-resistant liver cancer cell line was injected into […] to induce the formation of sorafenib-resistant liver cancer, changes in size of liver cancer were confirmed in the group injected with the inverse agonist against ERRγ (DN200434) and sorafenib and the group injected with the control drug.
(§2) In order to investigate an effect of the compound (DN200434) represented by Formula 1, which is an inverse agonist against ERRγ, on ROS generation in sorafenib-resistant liver cancer cells, the effect was measured by FACS using 2′,7′-dichlorohydrofluorescein diacetate (H2-DCF-DA; Invitrogen, USA) as an ROS probe. Drug-resistant cells were treated with sorafenib (10 μM) and the DN200434 compound (12 μM) for 24 hours, and 10 μM H2-DCF-DA was added to the cells. Then, the cells were incubated for 30 minutes, and washed with PBS, and data was collected using a BD Accuri™ C6 flow cytometer (BD Bioscience, USA), and analyzed using an Accuri™ C6 analysis program (BD Bioscience, USA). To determine the number of cells, the sorafenib-resistant liver cancer cell line was treated with the DN200434 compound (12 μM) in combination with sorafenib (10 μM), and stained with trypan blue, and the number of cells was then measured using a hemocytometer.

For series [2], the system named is Huh7-R sorafenib-resistant liver cancer cell line. The series is described as above. It counts as cell-based. The note with it: FIG. 4A. The protocol:
as §1, §2

The subject of series [3] is sorafenib-resistant liver cancer cell line Huh7-R. Kind of series: Sorafenib-resistant liver cancer animal model (xenograft). It counts as in vivo, mice. The procedure: as §1
(§3) The sorafenib-resistant liver cancer cell line Huh7-R was injected into mice in order to construct a sorafenib-resistant liver cancer animal model (xenograft). Thereafter, the inverse agonist against ERRγ (e.g., DN200434 (Formula 1)) was administered in combination with sorafenib, and the size change of the formed mass was measured. In this case, the group in which the sorafenib-resistant liver cancer-derived animal model was treated with sorafenib alone was used as the comparative control.

Series [4] concerns sorafenib-resistant liver cancer cell line SK-Hep-R. The description is as above. It counts as in vivo, mice. The procedure:
as §1, §3
An animal model derived from the sorafenib-resistant liver cancer cell line SK-Hep-R was constructed in the same manner as described above, and the effect of co-administration of the DN200434 compound represented by Formula 1, which is an inverse agonist against ERRγ, and sorafenib was confirmed.

The test system of series [5] is Huh7-SR cell line. As to the kind of experiment: ROS generation measured by FACS with H2-DCF-DA. The series is classed as cell-based. The conditions noted are these: DN200434 12 μM and sorafenib 10 μM, 24 hours, FIG. 3A. The protocol: (§4) The present inventors have performed experiments using sorafenib-resistant liver cancer cell lines (Huh7-SR and SK-Hep-R cell lines) and a liver cancer cell line-derived animal model (xenograft). To determine an effect of the synthetic compound DN200434, which is an inverse agonist against ERRγ, on the proliferation of liver cancer cells and ROS generation, ROS was measured using a cell count and 2′,7-dichlorofluorescin diacetate (DCF-DA). […]
as §2, with “Drug-resistant cells were treated with sorafenib (10 μM) and the DN200434 compound (12 μM) for 24 hours, and 10 μM H2-DCF-DA was added to the cells.” left out
For orientation: Flow cytometry measures light scatter and fluorescence of single cells or particles in a stream.

Series [6] has as its system SK-Hep-R cell line. Kind of series: ROS generation measured by FACS with H2-DCF-DA. The series is classed as cell-based. The conditions noted are these: DN200434 12 μM and sorafenib 10 μM, 24 hours, FIG. 3B. The procedure: as §4
as §2, with “Drug-resistant cells were treated with sorafenib (10 μM) and the DN200434 compound (12 μM) for 24 hours, and 10 μM H2-DCF-DA was added to the cells.” left out

In series [7] the test system is Huh7-SR cell line. Kind of series: Cell death by sorafenib (annexin/PI FACS, cleaved caspase-3). The series is classed as cell-based. The conditions noted are these: Huh7-SR cells; FIGS. 1A to 1C. The procedure:
(§5) Hepatocarcinoma cell lines [Huh7 cells (Korea Cell Line Bank (KCLB) No. 60104), SK-Hep cells (ATCC® HTB-52™)] were continuously exposed to sorafenib (gradually increasing to 10 μM) to construct sorafenib-resistant liver cancer cell lines (Huh7-SR and SK-Hep-R cell lines). To evaluate the cancer cell death by FACS, first, a cancer cell line was incubated in FITC-bound annexin and propidium iodide (PI) for 15 minutes, and annexin and PI binding were then measured by flow cytometry to acquire data using a BD Accuri C6 flow cytometer (BD Biosciences) and analyzed with the Accuri C6 analysis program (BD Biosciences)/FlowJo software (FlowJo, LLC.). Cancer cell line death was evaluated using a cleaved caspase-3 antibody (Cell Signaling Technology).

The subject of series [8] is SK-Hep-R cell line. The series is described as above. The series is classed as cell-based. The note with it: SK-Hep-R cells; FIGS. 1A to 1C. The procedure: as §5
Setting [9] is: DN200434 12 μM in combination with sorafenib 10 μM.

Take `CC(C)N1CCN(c2ccc(/C(=C(/CCCO)c3ccccc3)c3ccc(O)cc3)cc2)CC1` [DN200434]: the cell proliferation entry in series [1] (setting [9]) and in series [2] (setting [9]) was “significantly decreased” throughout. For the same molecule, the body weight change entry in series [3] (in combination with sorafenib vs sorafenib-alone control, FIG. 5D) was “no difference”; in series [4] (in combination with sorafenib vs sorafenib-alone control, FIG. 6D), “no difference”. The tumor size entry is given as “significantly decreased” in series [3] (in combination with sorafenib, compared to sorafenib-alone control, FIG. 5A) and “remarkably decreased” in series [4] (in combination with sorafenib, compared to sorafenib-alone control, FIG. 6A). In addition, the tumor weight entry in series [3] (in combination with sorafenib, compared to sorafenib-alone control, FIG. 5B) is “significantly decreased”; in series [4] (in combination with sorafenib, compared to sorafenib-alone control, FIG. 6B) it was “remarkably decreased”. In addition, the tumor volume entry in series [3] (in combination with sorafenib, compared to sorafenib-alone control, FIG. 5C) is listed as “significantly decreased”; in series [4] (in combination with sorafenib, compared to sorafenib-alone control, FIG. 6C), “remarkably decreased”. Besides, the ROS entry with Huh7-SR cell line [5] and with SK-Hep-R cell line [6] was “increase” each time.

Take `CNC(=O)c1cc(Oc2ccc(NC(=O)Nc3ccc(Cl)c(C(F)(F)F)c3)cc2)ccn1` [sorafenib, reference compound]: the cell proliferation result in series [1] (sorafenib alone) and in series [2] (sorafenib alone) was “not affected” in each case. The “cell death by sorafenib” value with Huh7-SR cell line [7] and in the series with SK-Hep-R cell line [8] was “did not increase” in each case.
